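Each compound was tested at five concentrations against cells in 96-well plates for 48 hours. GI50: concentration for 50% inhibition of growth.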 Calls of active or inactive are those of the source. Cut-off read from the data, not from the text of the source: active = GI50 up to about 1.1 µM and inactive = higher.
Columns and labels:
Assay in all cases: DTP human tumour cell line panel, 48 h
MDA-MB-231 = system: MDA-MB-231
A549 = system: A549
TK-10 = system: TK-10
HCT-116 = system: HCT-116
K562 = system: K562
NCI-H460 = system: NCI-H460
SK-MEL-5 = system: SK-MEL-5
Hs-578T = system: Hs-578T
MOLT-4 = system: MOLT-4
NCI-H23 = system: NCI-H23
CCRF-CEM = system: CCRF-CEM
COLO 205 = system: COLO 205
HCT-15 = system: HCT-15
RXF 393 = system: RXF 393
T47D = system: T47D
DU-145 = system: DU-145
KM12 = system: KM12
SK-OV-3 = system: SK-OV-3
CAKI-1 = system: CAKI-1
SF-539 = system: SF-539

Row | SMILES | GI50 (MDA-MB-231) | GI50 (A549) | GI50 (TK-10) | GI50 (HCT-116) | GI50 (K562) | GI50 (NCI-H460) | GI50 (SK-MEL-5) | GI50 (Hs-578T) | GI50 (MOLT-4) | GI50 (NCI-H23) | GI50 (CCRF-CEM) | GI50 (COLO 205) | GI50 (HCT-15) | GI50 (RXF 393) | GI50 (T47D) | GI50 (DU-145) | GI50 (KM12) | GI50 (SK-OV-3) | GI50 (CAKI-1) | GI50 (SF-539)
1 | COc1ccc2c(c1)c(=O)c1c(NCCNCCO)ccc3c(=O)n(CCN(C)C)c(=O)n2c31 | 0.132 µM (active) | < 0.0255 µM (active) | 0.187 µM (active) | < 0.0186 µM (active) | 0.0333 µM (active) | < 0.0202 µM (active) | 0.0562 µM (active) | 0.132 µM (active) | < 0.01 µM (active) | 0.0637 µM (active) | 0.104 µM (active) | 0.0467 µM (active) | 0.23 µM | 0.114 µM (active) | 0.0769 µM (active) | < 0.0337 µM (active) | 0.142 µM (active) | 0.251 µM (active) | 0.0537 µM (active) | < 0.0265 µM (active)
2 | C(=C\c1cccc(/C=C/c2ccccn2)n1)/c1ccccn1 | > 100 µM (inactive) | > 100 µM (inactive) | > 100 µM (inactive) | 68.9 µM (inactive) | 47.8 µM (inactive) | > 100 µM (inactive) | 48.4 µM (inactive) | 19.5 µM (inactive) | 31.5 µM (inactive) | 66.5 µM (inactive) | 37 µM (inactive) | 39.8 µM (inactive) | > 100 µM | 62.1 µM (inactive) | 44.5 µM (inactive) | > 100 µM (inactive) | 46.8 µM (inactive) | > 100 µM (inactive) | 50.7 µM (inactive) | > 100 µM (inactive)
3 | CC(=O)OC(C(=O)NNC(=O)OC(C)(C)C)c1ccccc1 (configuration not stated) | > 100 µM (inactive) | > 100 µM (inactive) | > 100 µM (inactive) |  | > 100 µM (inactive) | > 100 µM (inactive) | > 100 µM (inactive) | > 100 µM (inactive) | > 100 µM (inactive) | > 100 µM (inactive) |  | > 100 µM (inactive) | > 100 µM | > 100 µM (inactive) | > 100 µM (inactive) | > 100 µM (inactive) | > 100 µM (inactive) | > 100 µM (inactive) | > 100 µM (inactive) | > 100 µM (inactive)
4 | COC(=O)c1c(C)cccc1/C=C1\Cc2ccc(C)c(C)c2C1=O | > 100 µM (inactive) | > 100 µM (inactive) | > 100 µM (inactive) | > 100 µM (inactive) | 8.32 µM (inactive) | > 100 µM (inactive) | > 100 µM (inactive) | > 100 µM (inactive) | 93.8 µM (inactive) | > 100 µM (inactive) | > 10 µM (inactive) |  | > 100 µM | 86.5 µM (inactive) | 76.7 µM (inactive) | > 100 µM (inactive) | > 100 µM (inactive) |  | > 100 µM (inactive) | > 100 µM (inactive)
5 | c1ccc2c(c1)c1c3n2-c2cc(on2)C3CCC1 (configuration not stated) | > 100 µM (inactive) | > 100 µM (inactive) | > 100 µM (inactive) | > 100 µM (inactive) | > 100 µM (inactive) | > 100 µM (inactive) | > 100 µM (inactive) | > 100 µM (inactive) | 70.1 µM (inactive) | > 100 µM (inactive) | 82.6 µM (inactive) | 98.4 µM (inactive) | > 100 µM | > 100 µM (inactive) | > 100 µM (inactive) | > 100 µM (inactive) | > 100 µM (inactive) | > 100 µM (inactive) | > 100 µM (inactive) | > 100 µM (inactive)
6 | c1ccc(CC(Nc2cccnc2)c2ccccc2)cc1 (configuration not stated) | 20 µM (inactive) | 25.6 µM (inactive) | 32.2 µM (inactive) | 15.5 µM (inactive) | 17.5 µM (inactive) | 23 µM (inactive) | 15.7 µM (inactive) | 37.2 µM (inactive) | 16.4 µM (inactive) | 26.7 µM (inactive) | 16.4 µM (inactive) | 19.8 µM (inactive) | 30.3 µM | 18.6 µM (inactive) | 28.1 µM (inactive) | 29.6 µM (inactive) | 24.2 µM (inactive) | 31.7 µM (inactive) | 32.4 µM (inactive) | 20.6 µM (inactive)
7 | O=C(O)c1ccc(Nc2nc3cc(C(F)(F)F)ccc3nc2-c2ccccc2)cc1 | 32.1 µM (inactive) | 16.3 µM (inactive) | 15.2 µM (inactive) | 22.8 µM (inactive) | 16.8 µM (inactive) | 19.1 µM (inactive) | 21 µM (inactive) | 17.6 µM (inactive) | 24.9 µM (inactive) | 19 µM (inactive) | 22.3 µM (inactive) | 17.5 µM (inactive) | 12.9 µM | 24 µM (inactive) | 7.26 µM (inactive) | 25.8 µM (inactive) | 13.2 µM (inactive) |  | 23.3 µM (inactive) | 21.7 µM (inactive)
8 | OC1CCC(C2C3CCCCC3C3CCCCC3C2C2CCC(O)CC2)CC1 (configuration not stated) | 3.27 µM (inactive) | 4.18 µM (inactive) | 5.18 µM (inactive) | 4.52 µM (inactive) | 4.69 µM (inactive) | 2.96 µM (inactive) | 10.4 µM (inactive) | 7.28 µM (inactive) | 4.39 µM (inactive) | 3.08 µM (inactive) |  | 2.22 µM (inactive) | 2.49 µM | 2.9 µM (inactive) | 5.26 µM (inactive) | 5.37 µM (inactive) | 3.33 µM (inactive) | 5.19 µM (inactive) | 3.62 µM (inactive) | 10.6 µM (inactive)
9 | N#CCN1CCCN(CC#N)CCN(CC#N)CCCN(CC#N)CC1 | > 100 µM (inactive) | > 100 µM (inactive) | > 100 µM (inactive) | > 100 µM (inactive) | > 100 µM (inactive) | > 100 µM (inactive) | > 100 µM (inactive) | > 100 µM (inactive) | > 100 µM (inactive) | > 100 µM (inactive) | 89.9 µM (inactive) | 11.4 µM (inactive) |  | > 100 µM (inactive) | > 100 µM (inactive) | > 100 µM (inactive) | 39.9 µM (inactive) | > 100 µM (inactive) | > 100 µM (inactive) | > 100 µM (inactive)
10 | OC1CCN(c2c3ccccc3nc3ccccc23)CC1 | 25.1 µM (inactive) | 44.4 µM (inactive) | 4.03 µM (inactive) | 4.84 µM (inactive) | 4.01 µM (inactive) | 21.3 µM (inactive) | 19.7 µM (inactive) | 35.1 µM (inactive) | 4.73 µM (inactive) | 8.02 µM (inactive) |  | 3.13 µM (inactive) | 16.5 µM | 4.55 µM (inactive) | 1.51 µM (inactive) | 5.22 µM (inactive) | 37.2 µM (inactive) | 39.7 µM (inactive) | 20.1 µM (inactive) | 33 µM (inactive)
11 | Oc1ccc(O)c(CNc2ccc(C(O)C(F)(F)F)cc2)c1 (configuration not stated) | 15.6 µM (inactive) | 31.6 µM (inactive) | 17.8 µM (inactive) | 16.7 µM (inactive) | 11.9 µM (inactive) | 21.5 µM (inactive) | 29.3 µM (inactive) | 41.2 µM (inactive) | 5.01 µM (inactive) | 21.4 µM (inactive) | 3.21 µM (inactive) | 18.5 µM (inactive) | 13.7 µM | 12.5 µM (inactive) | 18.1 µM (inactive) | 14.5 µM (inactive) |  | 44.3 µM (inactive) | 16 µM (inactive) | 4.85 µM (inactive)
12 | COc1ccc2c3c(c(=O)n(C)c2c1OC)C=CC(C)(C)O3 | 22 µM (inactive) | 44.7 µM (inactive) | 28.8 µM (inactive) | 29.9 µM (inactive) |  |  | 13.3 µM (inactive) | 23.5 µM (inactive) | 24.4 µM (inactive) | 22.8 µM (inactive) | 23.2 µM (inactive) | 19.7 µM (inactive) | 13.4 µM | 26.5 µM (inactive) | 25.8 µM (inactive) | 43.7 µM (inactive) | 21.6 µM (inactive) | 32.1 µM (inactive) | 13.5 µM (inactive) | 39.2 µM (inactive)
13 | CC[C@@H](O)C[C@H]1CCC[C@@]2(C[C@@H]3OC(=O)/C=C/[C@@](C)(O)[C@@H](O)[C@H](C)[C@@H](O)[C@H](OC4CCC(N(C)C)C(C)O4)[C@@H](O)[C@](C)(O)CCCCC/C=C/[C@@H]4CC(C)(C)O[C@@]4(O)C[C@H](O2)[C@H]3C)O1 (some centres not stated) | 17.5 µM (inactive) | < 0.01 µM (active) |  | 1.54 µM (inactive) | < 0.01 µM (active) | 4.23 µM (inactive) | < 0.01 µM (active) | 12.8 µM (inactive) | 1.91 µM (inactive) | < 0.01 µM (active) | 15.9 µM (inactive) | < 0.01 µM (active) | 11.5 µM | 14.7 µM (inactive) | < 0.01 µM (active) | 11.3 µM (inactive) | 0.34 µM (active) | 14.6 µM (inactive) | 3.61 µM (inactive) | 10.9 µM (inactive)
14 | CCOC(=O)N1C=CC(=C2C(=C3C=CN(C(=O)OCC)C=C3)C(=C3C=CN(C(=O)OCC)C=C3)C2=C2C=CN(C(=O)OCC)C=C2)C=C1 | 10.4 µM (inactive) | 24.4 µM (inactive) | 26 µM (inactive) | 11.1 µM (inactive) | 23.8 µM (inactive) | 22.9 µM (inactive) | 26.5 µM (inactive) | 16 µM (inactive) | 16.9 µM (inactive) | 26.2 µM (inactive) |  | 23.1 µM (inactive) | 12.4 µM | 51.5 µM (inactive) | 36.5 µM (inactive) | 35.3 µM (inactive) | 22.1 µM (inactive) | 44 µM (inactive) | 16.7 µM (inactive) | 25 µM (inactive)
